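A five-concentration, 48-hour dose response in 96-well plates underlies each endpoint, interpolated linearly between surrounding concentrations. TGI: concentration producing complete growth inhibition.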

Assay in all cases: inhibition of tumour cell growth, NCI panel, 48 h
In assay [1] the test system is HCT-116 colon.
The subject of assay [2] is IGROV1 ovarian.
For assay [3], the system named is SN12C renal.
Assay [4] concerns OVCAR-3 ovarian.
In assay [5] the test system is MALME-3M melanoma.
Assay [6] deals with UO-31 renal.
Assay [7] has as its system LOX IMVI melanoma.
Assay [8] concerns COLO 205 colon.
Assay [9] has as its system RPMI-8226 leukemia.
For assay [10], the system named is K-562 leukemia.
Assay [11] has as its system MOLT-4 leukemia.
Assay [12] relates to SF-295 CNS.
Assay [13] deals with HOP-62 NSCLC.
Assay [14] has as its system A549 NSCLC.
Assay [15] relates to SK-MEL-2 melanoma.
The test system of assay [16] is OVCAR-4 ovarian.
The test system of assay [17] is NCI-H23 lung.
In assay [18] the test system is NCI-H460 lung.
The test system of assay [19] is HL-60(TB) leukemia.

With `CCOC(=O)C1=[N+]([O-])OC2=C(O)CCCC21` (centres undefined), the TGI in assay [1], in [2], in assay [3], in assay [4], in [5] and in assay [6] was above 100 µM in each case. Moreover, the TGI in assay [7], in [8], in assay [9], in assay [10], in assay [11] and in [12] was above 100 µM throughout. For the same compound, the TGI in assay [13], in assay [14], in [15], in assay [16], in assay [17] and in assay [18] was above 100 µM each time.

For the compound `O=C(/C=C/c1csc(-c2ccccc2)n1)NCc1ccc(C(=O)NCCc2ccccc2)cc1`, the TGI in assay [1], in assay [2], in assay [3], in [4], in assay [5] and in [6] was above 100 µM each time. Further, the TGI was above 100 µM in assay [7]; above 100 µM in [8]; above 100 µM in [9]; above 100 µM in [10]; above 100 µM in [11]; 30.9 µM in assay [12]. For the same compound, the TGI in assay [13] was 6.86 µM; in assay [14], above 100 µM; in assay [15], above 100 µM; in assay [16], above 100 µM; in assay [17], above 100 µM; in assay [18], above 100 µM.

Take `CC(=O)CCCCC(=O)Nc1ccc(CC(NC(=O)OC(C)(C)C)C(=O)NCC(=O)OCc2ccccc2)cc1` (centres undefined): the TGI was 37.8 µM in assay [1]; above 100 µM in assay [2]; 64.4 µM in [3]; 27.9 µM in [4]; 40.4 µM in assay [5]; 39.2 µM in [6]. Further, the TGI in [7] was found to be 29.3 µM; in assay [8], 34.7 µM; in assay [9], 39.5 µM; in [10], 47.6 µM; in [11] it was 66.4 µM; in assay [12], 35.6 µM. The TGI in assay [19] was 43.6 µM; in [13], 26.8 µM; in [14], above 100 µM; in assay [16] it was 27.6 µM; in assay [17] it was 76.6 µM; in assay [18], 43 µM.

Turning to `COCCN(C(C)=O)C1CCC2(SCCS2)c2[nH]c3ccccc3c21` (centres undefined), the TGI in assay [1], in assay [2], in assay [3], in [4], in [5] and in [7] was above 100 µM each time. The TGI in [8], in assay [9], in assay [10], in [11], in assay [12] and in assay [19] was above 100 µM in each case. The TGI in assay [13], in assay [14], in assay [17] and in [18] was above 100 µM each time.

Regarding `N=c1oc2cc(O)ccc2cc1C(=O)NCc1ccccc1`, the TGI was 71.3 µM in assay [1]; above 100 µM in [2]; 48.8 µM in assay [3]; 57.9 µM in assay [4]; 58.7 µM in assay [5]; above 100 µM in assay [6]. For the same compound, the TGI is above 100 µM in assay [7]; 25.4 µM in assay [8]; 39.9 µM in assay [9]; 28.2 µM in assay [10]; 53.3 µM in assay [11]; above 100 µM in assay [12]. For the same compound, the TGI is above 100 µM in assay [13]; above 100 µM in assay [14]; 34.2 µM in [15]; above 100 µM in [16]; 58.7 µM in assay [17]; above 100 µM in assay [18].

Take `COc1ccc2c(C)cc(N/N=C(\C)C=O)nc2c1`: the TGI in assay [1] turned out to be 26.5 µM; in assay [2] it was 33.5 µM; in [3], 26.8 µM; in assay [4], 7.59 µM; in assay [5] it was 28 µM; in [6] it was 26.4 µM. The TGI turned out to be 24 µM in [7]; 30.6 µM in assay [8]; 22.9 µM in assay [9]; 5.05 µM in assay [10]; 15.9 µM in assay [11]; 28.8 µM in assay [12]. The TGI in assay [13] turned out to be 27.1 µM; in [14] it was 38.6 µM; in assay [15], 33.1 µM; in assay [16] it was 25.5 µM; in assay [17], 24.8 µM; in [18] it was 24.9 µM.

As for `N#CCc1nc2ccccc2c(=O)[nH]1`, the TGI in assay [1], in assay [2], in assay [3], in assay [4], in assay [6] and in assay [7] was above 100 µM in each case. Moreover, the TGI in [8], in assay [11], in assay [12], in [19], in [13] and in assay [14] was above 100 µM each time. For the same compound, the TGI in [15], in [16], in [17] and in assay [18] was above 100 µM throughout.

For `COC12OC3(C4OC41)C(C(=O)O[C@H]3CO[Si](C)(C)C(C)(C)C)C2C(=O)Oc1ccccc1` (some centres undefined), the TGI in [1], in assay [2], in assay [3], in assay [4], in assay [5] and in [6] was above 100 µM each time. In addition, the TGI in assay [7], in assay [8], in [9], in assay [10], in [11] and in assay [12] was above 100 µM in each case. In addition, the TGI in [13], in assay [14], in assay [15], in assay [16], in [17] and in assay [18] was above 100 µM throughout.

Regarding `CCOC(=O)C(=[N+]=[N-])C(=O)C1(C(=O)OCC)CCN(C(=O)c2ccccc2)C1=O` (centres undefined), the TGI in assay [1], in assay [2], in [3], in [5], in [6] and in assay [7] was above 100 µM in each case. For the same compound, the TGI in assay [8], in [11], in assay [12], in [19], in assay [13] and in assay [14] was above 100 µM each time. The TGI in [15], in assay [16], in [17] and in [18] was above 100 µM throughout.

With `[N-]=[N+]=Nc1c(C=O)c(=O)n2c3c(cccc13)CCC2`, the TGI in assay [1] was found to be 10.9 µM; in [2], 25 µM; in [3] it was 37.5 µM; in [4], 6.27 µM; in assay [5], 4.26 µM; in assay [6], 6.39 µM. For the same compound, the TGI is 25.4 µM in assay [7]; 4.63 µM in [8]; above 22.3 µM in assay [9]; 13 µM in [10]; 4.26 µM in assay [11]; above 76.6 µM in assay [12]. Further, the TGI in assay [19] was above 100 µM; in assay [13], 35.2 µM; in assay [14], 40.9 µM; in [16] it was 8.49 µM; in assay [17], 12.2 µM; in [18] it was 47.2 µM.

For the compound `O=[N+]([O-])C(C(Cl)=C(Cl)Cl)=C(N(Cc1ccccc1)Cc1ccccc1)N(Cc1ccccc1)Cc1ccccc1`, the TGI in [1], in [2], in assay [3], in [4], in [5] and in assay [6] was above 100 µM throughout. Moreover, the TGI was above 100 µM in assay [7]; above 100 µM in assay [8]; above 100 µM in assay [10]; above 100 µM in assay [11]; above 100 µM in assay [12]; 78 µM in [19]. Further, the TGI in assay [13] is above 100 µM; in assay [14] it was above 100 µM; in assay [15], 98.3 µM; in assay [17], above 100 µM; in assay [18] it was above 100 µM.

Regarding `C[n+]1c2ccccc2c(C(=O)Nc2ccc(S(=O)(=O)Nc3ccnn3-c3ccccc3)cc2)c2ccccc21`, the TGI in assay [1], in assay [2], in assay [3], in assay [4], in [5] and in assay [6] was above 100 µM in each case. Moreover, the TGI in assay [7], in assay [8], in assay [9], in [10], in [11] and in assay [12] was above 100 µM throughout. Moreover, the TGI in assay [13], in assay [14], in assay [15], in assay [16], in assay [17] and in assay [18] was above 100 µM in each case.

Values taken from PubChem BioAssay (NCI).
